# Test results: patent US12157746B2, “Tetrahydro-1H-pyrazino[2,1-a]isoindolylquinoline compounds for the treatment of autoimmune disease” (F. HOFFMANN-LA ROCHE AG, priority 2018, dated 2024)
# Molecular target: T1, human TLR7 (Homo sapiens, UniProt Q9NYK1)
# T1 sequence (Q9NYK1 27-1049): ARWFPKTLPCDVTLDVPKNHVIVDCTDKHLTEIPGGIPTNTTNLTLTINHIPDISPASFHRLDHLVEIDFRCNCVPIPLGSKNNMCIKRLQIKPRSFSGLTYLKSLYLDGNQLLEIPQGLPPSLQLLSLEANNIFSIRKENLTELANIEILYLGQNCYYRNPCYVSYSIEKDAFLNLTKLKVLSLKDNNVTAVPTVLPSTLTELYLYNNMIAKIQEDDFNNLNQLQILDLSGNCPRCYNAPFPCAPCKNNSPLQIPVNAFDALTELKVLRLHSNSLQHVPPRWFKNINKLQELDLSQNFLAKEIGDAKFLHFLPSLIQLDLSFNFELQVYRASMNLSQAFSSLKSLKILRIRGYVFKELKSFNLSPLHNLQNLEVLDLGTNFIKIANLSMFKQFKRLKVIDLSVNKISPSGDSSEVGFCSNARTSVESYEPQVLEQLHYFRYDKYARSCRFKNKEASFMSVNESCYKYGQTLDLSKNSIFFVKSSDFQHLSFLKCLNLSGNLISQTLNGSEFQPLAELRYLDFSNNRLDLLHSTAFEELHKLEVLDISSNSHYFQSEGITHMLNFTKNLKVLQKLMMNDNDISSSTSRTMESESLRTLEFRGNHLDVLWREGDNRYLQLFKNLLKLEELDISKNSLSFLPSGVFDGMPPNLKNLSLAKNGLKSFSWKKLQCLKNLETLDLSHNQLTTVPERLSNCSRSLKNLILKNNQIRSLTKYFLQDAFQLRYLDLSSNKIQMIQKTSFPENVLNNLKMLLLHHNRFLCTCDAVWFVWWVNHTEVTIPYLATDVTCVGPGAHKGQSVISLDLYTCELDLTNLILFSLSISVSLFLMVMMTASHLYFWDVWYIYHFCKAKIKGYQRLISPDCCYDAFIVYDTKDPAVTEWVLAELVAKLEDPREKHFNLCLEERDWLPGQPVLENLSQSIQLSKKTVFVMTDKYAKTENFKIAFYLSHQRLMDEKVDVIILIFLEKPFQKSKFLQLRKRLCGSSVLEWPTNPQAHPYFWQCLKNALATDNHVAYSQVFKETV
# Test: HEK293-Blue-hTLR-7 cells assay
# Assay type: cell-based
# Conditions: HEK293-Blue-hTLR7 cells, R848 stimulation, 20 hrs, SEAP reporter; read-out: HEK/hTLR7 IC50
# Text: HEK293-Blue-hTLR-7 Cells Assay:
# A stable HEK293-Blue-hTLR-7 cell line was purchased from InvivoGen (Cat. #: hkb-htlr7, San Diego, California, USA). These cells were originally designed for studying the stimulation of human TLR7 by monitoring the activation of NF-κB. A SEAP (secreted embryonic alkaline phosphatase) reporter gene was placed under the control of the IFN-β minimal promoter fused to five NF-κB and AP-1-binding sites. The SEAP was induced by activating NF-κB and AP-1 via stimulating HEK-Blue hTLR7 cells with TLR7 ligands. Therefore the reporter expression was declined by TLR7 antagonist under the stimulation of a ligand, such as R848 (Resiquimod), for incubation of 20 hrs. The cell culture supernatant SEAP reporter activity was determined using QUANTI-Blue™ kit (Cat. #: rep-qb1, Invivogen, San Diego, Ca. USA) at a wavelength of 640 nm, a detection medium that turns purple or blue in the presence of alkaline phosphatase.
# HEK293-Blue-hTLR7 cells were incubated at a density of 250,000˜450,000 cells/mL in a volume of 170 μL in a 96-well plate in Dulbecco's Modified Eagle's medium (DMEM) containing 4.5 g/L glucose, 50 U/mL penicillin, […], […], 2 mM L-glutamine, 10% (v/v) heat-inactivated fetal bovine serum with addition of 20 μL test compound 1n a serial dilution in the presence of final DMSO at 1% and 10 μL of 20 uM R848 in above DMEM, perform incubation under 37° C. in a CO2 incubator for 20 hrs. Then 20 μL of the supernatant from each well was incubated with 180 μL Quanti-blue substrate solution at 37° C. for 2 hrs and the absorbance was read at 620-655 nm using a spectrophotometer. The signaling pathway that TLR7 activation leads to downstream NF-κB activation has been widely accepted, and therefore similar reporter assay was modified for evaluating TLR7 antagonist.
row,Compound,IC50 [nM]
1,"CO[C@H]1CN(c2ccc3c(c2)CN2[C@H](C)CN(c4ccc(C#N)c5ncccc45)C[C@H]32)C[C@@H]1N (relative stereo) [Example 16, 5-[(4R,10bS)-8-[trans-3-amino-4-methoxy-pyrrolidin-1-yl]-4-methyl-3,4,6,10b-tetrahydro-1H-pyrazino[2,1-a]isoindol-2-yl]quinoline-8-carbonitrile]",6.9
2,"C[C@@H]1CN(c2ccc(C#N)c3ncccc23)CC2c3ccc(N4C[C@H](N)[C@@H](O)C4)cc3CN21 (relative stereo) [Example 21, 5-[(4R,10bS)-8-[trans-3-amino-4-hydroxy-pyrrolidin-1-yl]-4-methyl-3,4,6,10b-tetrahydro-1H-pyrazino[2,1-a]isoindol-2-yl]quinoline-8-carbonitrile]",5.8
3,"CO[C@H]1CN(c2ccc3c(c2)CN2C3CN(c3ccc(C#N)c4ncccc34)C[C@H]2C)C[C@@H]1N (single isomer, unassigned) [Example 16A]",5.3
4,"COC1CN(c2ccc3c(c2)CN2C3CN(c3ccc(C#N)c4ncccc34)C[C@H]2C)CC1N (single isomer, unassigned) [Example 16B]",4.5
5,"C[C@@H]1CN(c2ccc(C#N)c3ncccc23)C[C@@H]2c3ccc(N4C[C@@H](N)[C@H](O)C4)cc3CN12 (single isomer, unassigned) [Example 40B]",4.3
6,"N#Cc1ccc(N2CCN3Cc4cc(N5CCNCC5)ccc4C3C2)c2scnc12 (stereo not shown) [Example 4, 7-(8-piperazin-1-yl-3,4,6,10b-tetrahydro-1H-pyrazino[2,1-a]isoindol-2-yl)-1,3-benzothiazole-4-carbonitrile]",18.3
7,"C[C@@H]1CN(c2ccc(C#N)n3nccc23)C[C@@H]2c3ccc(N4CCNCC4)cc3CN12 [Example 5, 4-[(4R,10bS)-4-methyl-8-piperazin-1-yl-3,4,6,10b-tetrahydro-1H-pyrazino[2,1-a]isoindol-2-yl]pyrazolo[1,5-a]pyridine-7-carbonitrile]",4.9
8,"C[C@@H]1CN(c2ccc(C#N)c3ncccc23)C[C@@H]2c3ccc(N4CCNC[C@H]4CO)cc3CN12 [Example 11, 5-[(4R,10S)-8-[(2S)-2-(hydroxymethyl)piperazin-1-yl]-4-methyl-3,4,6,10b-tetrahydro-1H-pyrazino[2,1-a]isoindol-2-yl]quinoline-8-carbonitrile]",3.4
9,"C[C@@H]1CN(c2ccc(C#N)c3ncccc23)C[C@@H]2c3ccc(N4CC5CNCC(C4)O5)cc3CN12 [Example 14, 5-[(4R,10bS)-4-methyl-8-(9-oxa-3,7-diazabicyclo[3.3.1]nonan-3-yl)-3,4,6,10b-tetrahydro-1H-pyrazino[2,1-a]isoindol-2-yl]quinoline-8-carbonitrile]",4.5
10,"C[C@@H]1CN(c2ccc(C#N)c3ncccc23)C[C@@H]2c3ccc(N4CCNCC(O)C4)cc3CN12 (stereo partly drawn) [Example 15, 5-[(4R,10bS)-8-(6-hydroxy-1,4-diazepan-1-yl)-4-methyl-3,4,6,10b-tetrahydro-1H-pyrazino[2,1-a]isoindol-2-yl]quinoline-8-carbonitrile]",5.8
11,"C[C@@H]1CN(c2ccc(C#N)c3ncccc23)C[C@@H]2c3ccc(N4CC(N)C5(COC5)C4)cc3CN12 (stereo partly drawn) [Example 18, 5-[(4R,10bS)-8-(5-amino-2-oxa-7-azaspiro[3.4]octan-7-yl)-4-methyl-3,4,6,10b-tetrahydro-1H-pyrazino[2,1-a]isoindol-2-yl]quinoline-8-carbonitrile]",4.9
12,"C[C@@H]1CN(c2ccc(C#N)c3ncccc23)C[C@@H]2c3ccc(N4CCC(N)(CO)C4)cc3CN12 (stereo partly drawn) [Example 19, 5-[(4R,10bS)-8-[3-amino-3-(hydroxymethyl)pyrrolidin-1-yl]-4-methyl-3,4,6,10b-tetrahydro-1H-pyrazino[2,1-a]isoindol-2-yl]quinoline-8-carbonitrile]",3.6
13,"C[C@@H]1CN(c2ccc(C#N)c3ncccc23)C[C@@H]2c3ccc(N4CC[C@@H](N)C4)cc3CN12 [Example 20, 5-[(4R,10bS)-8-[(3R)-3-aminopyrrolidin-1-yl]-4-methyl-3,4,6,10b-tetrahydro-1H-pyrazino[2,1-a]isoindol-2-yl]quinoline-8-carbonitrile]",3.4
14,"C[C@@H]1CN(c2ccc(C#N)c3ncccc23)C[C@@H]2c3ccc(N4CC(N)C4)cc3CN12 [Example 22, 5-[(4R,10bS)-8-(3-aminoazetidin-1-yl)-4-methyl-3,4,6,10b-tetrahydro-1H-pyrazino[2,1-a]isoindol-2-yl]quinoline-8-carbonitrile]",< 3.2
15,"CN[C@H]1CN(c2ccc3c(c2)CN2[C@H](C)CN(c4ccc(C#N)c5ncccc45)C[C@H]32)C[C@@H]1OC [Example 23, 5-[(4R,10bS)-8-[(3S,4S)-3-methoxy-4-(methylamino)pyrrolidin-1-yl]-4-methyl-3,4,6,10b-tetrahydro-1H-pyrazino[2,1-a]isoindol-2-yl]quinoline-8-carbonitrile]",7

# Second part, the compound after the results:
row,IC50 [nM],Compound
1,< 3.2,"CO[C@@H]1CN(c2ccc3c(c2)CN2C3CN(c3ccc(C#N)c4ncccc34)C[C@H]2C)C[C@@H]1N (relative stereo) [Example 17, 5-[(4R,10bS)-8-[cis-3-amino-4-methoxy-pyrrolidin-1-yl]-4-methyl-3,4,6,10b-tetrahydro-1H-pyrazino[2,1-a]isoindol-2-yl]quinoline-8-carbonitrile]"
2,< 3.2,"C[C@@H]1CN(c2ccc(C#N)c3ncsc23)C[C@@H]2c3ccc(N4CCNCC4)cc3CN12 [Example 6, 7-[(4R,10bS)-4-methyl-8-piperazin-1-yl-3,4,6,10b-tetrahydro-1H-pyrazino[2,1-a]isoindol-2-yl]-1,3-benzothiazole-4-carbonitrile]"
3,< 3.2,"C[C@@H]1CN(c2ccc(C#N)c3nccnc23)C[C@@H]2c3ccc(N4CCNCC4)cc3CN12 [Example 7, 8-[(4R,10bS)-4-methyl-8-piperazin-1-yl-3,4,6,10b-tetrahydro-1H-pyrazino[2,1-a]isoindol-2-yl]quinoxaline-5-carbonitrile]"
4,< 3.2,"C[C@@H]1CN(c2ccc(C#N)c3ncccc23)C[C@@H]2c3cccc(N4CCNCC4)c3CN12 [Example 8, 5-[(4R,10bS)-4-methyl-7-piperazin-1-yl-3,4,6,10b-tetrahydro-1H-pyrazino[2,1-a]isoindol-2-yl]quinoline-8-carbonitrile]"
5,< 3.2,"C[C@@H]1CN(c2ccc(C#N)c3ncccc23)C[C@@H]2c3ccc(C4CCNCC4)cc3CN12 [Example 9, 5-[(4R,10bS)-4-methyl-8-(4-piperidyl)-3,4,6,10b-tetrahydro-1H-pyrazino[2,1-a]isoindol-2-yl]quinoline-8-carbonitrile]"
6,< 3.2,"C[C@@H]1CN(c2ccc(C#N)c3ncccc23)C[C@@H]2c3ccc(N4CCNC[C@@H]4CO)cc3CN12 [Example 10, 5-[(4R,10bS)-8-[(2R)-2-(hydroxymethyl)piperazin-1-yl]-4-methyl-3,4,6,10b-tetrahydro-1H-pyrazino[2,1-a]isoindol-2-yl]quinoline-8-carbonitrile]"
7,< 3.2,"C[C@@H]1CN(c2ccc(C#N)c3ncccc23)C[C@@H]2c3ccc(N4CCN[C@H](CO)C4)cc3CN12 [Example 12, 5-[(4R,10bS)-8-[(3S)-3-(hydroxymethyl)piperazin-1-yl]-4-methyl-3,4,6,10b-tetrahydro-1H-pyrazino[2,1-a]isoindol-2-yl]quinoline-8-carbonitrile]"
